Assay results: patent US11873288B2, “Inhibitors for soluble epoxide hydrolase (sEH) and fatty acid amide hydrolase (FAAH)” (The Regents of the University of California, priority 2016, dated 2024)

Assays:
[1] = molecular target: T1, hsEH (Homo sapiens, UniProt P34913); assay: human sEH inhibition (hsEH IC50); format: biochemical
T1 sequence (P34913 1-555): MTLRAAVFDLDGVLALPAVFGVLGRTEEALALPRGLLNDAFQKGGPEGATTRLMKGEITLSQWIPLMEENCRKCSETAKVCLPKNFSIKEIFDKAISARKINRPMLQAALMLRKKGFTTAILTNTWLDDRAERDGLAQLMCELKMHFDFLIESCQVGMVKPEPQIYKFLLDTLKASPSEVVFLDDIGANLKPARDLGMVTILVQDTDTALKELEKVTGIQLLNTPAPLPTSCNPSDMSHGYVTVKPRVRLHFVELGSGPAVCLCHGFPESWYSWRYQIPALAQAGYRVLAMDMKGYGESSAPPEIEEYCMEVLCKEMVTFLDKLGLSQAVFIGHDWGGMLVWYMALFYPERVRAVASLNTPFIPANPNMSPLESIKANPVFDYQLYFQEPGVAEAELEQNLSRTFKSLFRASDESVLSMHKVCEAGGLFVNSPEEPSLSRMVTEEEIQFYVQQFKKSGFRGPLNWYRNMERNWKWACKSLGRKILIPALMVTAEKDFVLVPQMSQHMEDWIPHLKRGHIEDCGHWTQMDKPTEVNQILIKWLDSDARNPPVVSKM

[2] = molecular target: T2, hFAAH (Homo sapiens, UniProt O00519); assay: recombinant FAAH enzyme with fluorescent substrate OMP (hFAAH IC50, screen); format: biochemical
T2 construct: made in house
T2 sequence (O00519 1-579): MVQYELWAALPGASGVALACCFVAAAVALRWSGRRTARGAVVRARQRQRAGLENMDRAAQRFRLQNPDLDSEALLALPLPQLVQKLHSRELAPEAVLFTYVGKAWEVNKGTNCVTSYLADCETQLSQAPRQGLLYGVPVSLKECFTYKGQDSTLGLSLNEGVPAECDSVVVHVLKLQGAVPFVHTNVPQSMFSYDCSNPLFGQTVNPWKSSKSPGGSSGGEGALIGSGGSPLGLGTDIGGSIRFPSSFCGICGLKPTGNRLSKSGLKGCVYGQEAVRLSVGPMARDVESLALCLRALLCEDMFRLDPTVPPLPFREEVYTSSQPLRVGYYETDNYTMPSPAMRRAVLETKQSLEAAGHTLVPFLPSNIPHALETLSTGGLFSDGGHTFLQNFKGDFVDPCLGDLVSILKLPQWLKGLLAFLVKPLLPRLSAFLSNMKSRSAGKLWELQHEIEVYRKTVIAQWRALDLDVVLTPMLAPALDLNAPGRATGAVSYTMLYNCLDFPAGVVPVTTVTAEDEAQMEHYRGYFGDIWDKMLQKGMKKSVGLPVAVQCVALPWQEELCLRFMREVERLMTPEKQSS

| Structure (SMILES) | IC50 [1] | IC50 [2] | also measured |
| --- | --- | --- | --- |
| COc1ccc(O[C@H]2CC[C@H](NC(=O)Nc3ccc(OC(F)(F)F)cc3)CC2)cc1 [Compound A-22] | 3 nM | – | – |
| O=Cc1ccc(O[C@H]2CC[C@H](NC(=O)Nc3ccc(OC(F)(F)F)cc3)CC2)cc1 [Compound A-20, trans-1-(4-(4-formyl-phenoxy)cyclohexyl)-3-(4-(trifluoromethoxy)phenyl)urea] | 4 nM | – | – |
| O=C(Nc1ccccc1)N[C@H]1CC[C@H](Oc2ccc(C(=O)O)cc2)CC1 [Compound A-1, 4-((trans-4-(3-phenylureido)cyclohexyl)oxy)benzoic acid] | 30 nM | – | – |
| O=C(Nc1ccc(Cl)cc1)N1CCC(Cc2cnc3ccccc3c2)CC1 [Compound B-2, N-(4-chlorophenyl)-4-(quinolin-3-ylmethyl)piperidine-1-carboxamide] | 20 ± 4 nM | 62 nM | decrease of activity/potency towards FAAH ([2]; relative to PF-750): 3 fold; increase of activity/potency towards sEH [1]: 30 fold |
| O=C(Nc1ccc(C(F)(F)F)cc1)N1CCC(Cc2cccc(Oc3ccc(C(F)(F)F)cn3)c2)CC1 [Compound B-13, N-(4-(trifluoromethyl)phenyl)-4-(3-((5-(trifluoromethyl)pyridin-2-yl)oxy)benzyl)piperidine-1-carboxamide] | 7 nM | 8 nM | – |
| O=C(Nc1ccccc1F)N1CCC(Cc2cnc3ccccc3c2)CC1 [Compound B-3, N-(2-fluorophenyl)-4-(quinolin-3-ylmethyl)piperidine-1-carboxamide] | 800 ± 400 nM | 49 nM | increased potency towards FAAH ([2]; relative to PF-750): 2.5 fold |
| O=C(Nc1ccc(OC(F)(F)F)cc1)N[C@H]1CC[C@H](Oc2ccc(C(=O)NCCO)cc2)CC1 [Compound A-15, N-(2-hydroxyethyl)-trans-4-((−4-(3-(4-(trifluoromethoxy)phenyl)ureido)cyclohexyl)oxy)benzamide] | 2 nM | – | – |
| NC(=O)c1ccc(O[C@H]2CC[C@H](NC(=O)Nc3ccc(OC(F)(F)F)cc3)CC2)cc1 [Compound A-19, trans-4-((−4-(3-(4-(trifluoromethoxy)phenyl)ureido)cyclohexyl)oxy) benzamide] | 2 nM | – | – |
| O=C(Nc1ccc(OC(F)(F)F)cc1)N1CCC(Cc2cccc(Oc3ccc(C(F)(F)F)cn3)c2)CC1 [Compound B-11, N-(4-(trifluoromethoxy)phenyl)-4-(3-((5-(trifluoromethyl)pyridin-2-yl)oxy)benzyl)piperidine-1-carboxamide] | – | – | hFAAH IC50 [2]: single digit; hsEH IC50 [1]: single digit |
| O=C(Nc1ccc(OC(F)(F)F)cc1)N[C@H]1CC[C@H](Oc2ccc(C(=O)NCc3ccccc3)cc2)CC1 [Compound A-27, N-benzyl-trans-4-((−4-(3-(4-(trifluoromethoxy)phenyl)ureido)cyclohexyl)oxy)benzamide] | 5 nM | – | – |
| O=C(Nc1cccnc1)N1CCC(Cc2cnc3ccccc3c2)CC1 [Compound B-6, N-(pyridin-3-yl)-4-(quinolin-3-ylmethyl)piperidine-1-carboxamide] | 4700 ± 1800 nM | 14 nM | – |
| Cc1noc(NC(=O)N2CCC(Cc3cccc(Oc4ccc(C(F)(F)F)cn4)c3)CC2)c1C [Compound B-17] | 500 nM | 1 nM | – |
| O=C(Nc1ccc(C(F)(F)F)cn1)N1CCC(Cc2cccc(Oc3ccc(C(F)(F)F)cn3)c2)CC1 [Compound B-14, N-(5-(trifluoromethyl)pyridin-2-yl)-4-(3-((5-(trifluoromethyl)pyridin-2-yl)oxy)benzyl)piperidine-1-carboxamide] | 60 nM | 3 nM | – |
| O=C(Nc1ccc(OC(F)(F)F)cc1)N1CCC(Cc2cnc3ccccc3c2)CC1 [Compound B-4, 4-(quinolin-3-ylmethyl)-N-(4-(trifluoromethoxy)phenyl)piperidine-1-carboxamide] | 8 ± 1 nM | 390 nM | decrease of activity/potency towards FAAH ([2]; relative to PF-750): 20.5 fold; increase of activity/potency towards sEH [1]: 80 fold |
| COC(=O)c1ccc(O[C@H]2CC[C@H](NC(=O)Nc3ccc(OC(F)(F)F)cc3)CC2)cc1 [Compound A-12, methyl 4-((trans-4-(3-(4-(trifluoromethoxy)phenyl)ureido)cyclohexyl)oxy) benzoate] | 7 nM | – | – |
| O=C(Nc1ccc(OC(F)(F)F)cc1)N[C@H]1CC[C@H](Oc2ccc(CO)cc2)CC1 [Compound A-24, 1-(trans-4-(4-(hydroxymethyl)phenoxy)cyclohexyl)-3-(4-(trifluoromethoxy)phenyl)urea] | 3 nM | – | – |
| O=C(Nc1ccc(F)cc1)N[C@H]1CC[C@H](Oc2ccc(C(=O)O)cc2)CC1 [Compound A-2, 4-((trans-4-(3-(4-fluorophenyl)ureido)cyclohexyl)oxy)benzoic acid] | 18 nM | – | – |
| O=C(NCCCCOc1ccc(C(=O)O)cc1)Nc1ccc(OC(F)(F)F)cc1 [Compound A-6, 4-(4-(3-(4-(trifluoromethoxy)phenyl)ureido)butoxy)benzoic acid] | 15 nM | – | – |
| Cc1nnc(-c2ccc(O[C@H]3CC[C@H](NC(=O)Nc4ccc(OC(F)(F)F)cc4)CC3)cc2)o1 [Compound A-25, 1-(trans-4-(4-(5-methyl-1,3,4-oxadiazol-2-yl)phenoxy)cyclohexyl)-3-(4-(trifluoromethoxy)phenyl)urea] | 4 nM | – | – |
| O=C(Nc1ccc(F)cc1)N1CCC(Cc2cnc3ccccc3c2)CC1 [Compound B-1, N-(4-fluorophenyl)-4-(quinolin-3-ylmethyl)piperidine-1-carboxamide] | 94 ± 42 nM | 88 nM | decrease of activity/potency towards FAAH ([2]; relative to PF-750): 4 fold; increase of activity/potency towards sEH [1]: 7 fold |
| N#Cc1ccc(O[C@H]2CC[C@H](NC(=O)Nc3ccc(OC(F)(F)F)cc3)CC2)cc1 [Compound A-11] | 5 nM | – | – |
| O=C(O)c1ccc(OC2CCN(C(=O)Nc3ccc(OC(F)(F)F)cc3)CC2)cc1 [Compound A-10, 4-((1-((4-(trifluoromethoxy)phenyl)carbamoyl)piperidin-4-yl)oxy)benzoic acid] | 8 nM | – | – |
| O=C(Nc1cccnn1)N1CCC(Cc2cccc(Oc3ccc(C(F)(F)F)cn3)c2)CC1 [Compound B-16, N-(pyridazin-3-yl)-4-(3-((5-(trifluoromethyl)pyridin-2-yl)oxy)benzyl)piperidine-1-carboxamide] | > 10000 nM | 0.5 nM | – |
| COC(=O)CNC(=O)c1ccc(O[C@H]2CC[C@H](NC(=O)Nc3ccc(OC(F)(F)F)cc3)CC2)cc1 [Compound A-17, methyl trans-(4-((4-(3-(4-(trifluoromethoxy)phenyl)ureido)cyclohexyl)oxy)benzoyl)glycinate] | 3 nM | – | – |
| O=C(O)CNC(=O)c1ccc(O[C@H]2CC[C@H](NC(=O)Nc3ccc(OC(F)(F)F)cc3)CC2)cc1 [Compound A-16] | 2 nM | – | – |
| CC(C)OC(=O)c1ccc(O[C@H]2CC[C@H](NC(=O)Nc3ccc(OC(F)(F)F)cc3)CC2)cc1 [Compound A-13, isopropyl 4-((trans-4-(3-(4-(trifluoromethoxy)phenyl)ureido)cyclohexyl)oxy)benzoate] | 5 nM | – | – |
| O=C(Nc1ccc(C(F)(F)F)nc1)N1CCC(Cc2cccc(Oc3ccc(C(F)(F)F)cn3)c2)CC1 [Compound B-15, 4-(3-((5-(trifluoromethyl)pyridin-2-yl)oxy)benzyl)-N-(6-(trifluoromethyl)pyridin-3-yl)piperidine-1-carboxamide] | 70 nM | 24 nM | – |
